Series [1] can be described thus: Microsomal stability, human liver microsomes (predicted hepatic clearance). Conditions: predicted from in vitro microsomal stability data.
The next series addresses GLP-1R (Homo sapiens, UniProt P43220). Put plainly: GLP-1R activation: cAMP increase in CHO cells stably expressing GLP-1R. Conditions: cAMP increase, CHO cells stably expressing GLP-1R, 10 point dose response, 30 minutes incubation; read-out: EC50. The format is cell-based.

Chain of GLP-1R (P43220 24-463): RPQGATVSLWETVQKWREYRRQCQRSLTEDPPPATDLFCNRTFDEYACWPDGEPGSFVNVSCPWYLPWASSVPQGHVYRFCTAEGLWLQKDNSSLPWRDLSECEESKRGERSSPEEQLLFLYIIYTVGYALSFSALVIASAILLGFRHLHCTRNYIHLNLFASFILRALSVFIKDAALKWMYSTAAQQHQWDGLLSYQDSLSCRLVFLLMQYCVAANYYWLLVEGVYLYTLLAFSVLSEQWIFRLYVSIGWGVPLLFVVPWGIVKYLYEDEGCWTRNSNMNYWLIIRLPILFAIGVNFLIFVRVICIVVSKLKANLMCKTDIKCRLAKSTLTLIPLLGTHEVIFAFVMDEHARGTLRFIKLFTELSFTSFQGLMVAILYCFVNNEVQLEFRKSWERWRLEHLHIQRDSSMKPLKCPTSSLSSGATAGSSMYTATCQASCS

As usually defined, the EC50 is the concentration that produces a half-maximal response. `COCCn1c(Cc2ccc(-c3cccc(OCc4cc(C(C)C)ccc4OC)n3)cc2F)nc2ccc(C(=O)O)cc21` [Example 145, 2-(2-fluoro-4-(6-((5-isopropyl-2-methoxybenzyl)oxy)pyridin-2-yl)benzyl)-1-(2-methoxyethyl)-1H-benzo[d]imidazole-6-carboxylic acid]: the “Predicted Hepatic Clearance (Pred. Cl.)” value in series [1] is 8.3 mL/min/kg. Further, on GLP-1R, the concentration for a half-maximal effect (EC50) was 1730 nM.

Take `COCCn1c(Cc2ccc(-c3cccc(OCc4ccc(C#N)cc4F)n3)cc2NC(C)=O)nc2ccc(C(=O)O)cc21` [Example 65, 2-(2-Acetamido-4-(6-((4-cyano-2-fluorobenzyl)oxy)pyridin-2-yl)benzyl)-1-(2-methoxyethyl)-1H-benzo[d]imidazole-6-carboxylic acid]: the “Predicted Hepatic Clearance (Pred. Cl.)” value in series [1] is 7.17 mL/min/kg. Further, the EC50 on GLP-1R stood at 1230 nM.

Consider `COCCn1c(Cc2cc(F)c(-c3cccc(OCc4ccc(C(F)F)cc4F)n3)cc2F)nc2ccc(C(=O)O)cc21` [Example 544, 2-(4-(6-((4-(difluoromethyl)-2-fluorobenzyl)oxy)pyridin-2-yl)-2,5-difluorobenzyl)-1-(2-methoxyethyl)-1H-benzo[d]imidazole-6-carboxylic acid], for which the “Predicted Hepatic Clearance (Pred. Cl.)” value in series [1] was 3.17 mL/min/kg. At GLP-1R, the EC50 was found to be 0.96 nM.

Take `N#CCC1(Cn2c(Cc3cc(F)c(-c4ccc(F)c(OCc5ccc(C#N)cc5F)n4)cc3F)nc3ccc(C(=O)O)nc32)CC1` [Example 130, 2-(4-(6-((4-cyano-2-fluorobenzyl)oxy)-5-fluoropyridin-2-yl)-2,5-difluorobenzyl)-3-((1-(cyanomethyl)cyclopropyl)methyl)-3H-imidazo[4,5-b]pyridine-5-carboxylic acid]: in series [1], the “Predicted Hepatic Clearance (Pred. Cl.)” value is 5.5 mL/min/kg. Besides, the EC50 on GLP-1R was found to be 0.11 nM.

Consider `N#Cc1ccc(COc2cccc(-c3ccc(Cc4nc5ccc(C(=O)O)cc5n4[C@H]4CCOC4)c(F)c3)n2)c(F)c1` [Example 204, (S)-2-(4-(6-((4-cyano-2-fluorobenzyl)oxy)pyridin-2-yl)-2-fluorobenzyl)-1-(tetrahydrofuran-3-yl)-1H-benzo[d]imidazole-6-carboxylic acid], for which the “Predicted Hepatic Clearance (Pred. Cl.)” value in series [1] was 5.33 mL/min/kg. Besides, the half-maximal effective concentration (EC50) on GLP-1R stood at 7.37 nM.

As to `COCCn1c(Cc2ccc(-c3ccc(Cl)c(OCc4ccc(C#N)cc4F)n3)cc2F)nc2ccc(C(=O)O)cc21` [Example 122, 2-(4-(5-chloro-6-((4-cyano-2-fluorobenzyl)oxy)pyridin-2-yl)-2-fluorobenzyl)-1-(2-methoxyethyl)-1H-benzo[d]imidazole-6-carboxylic acid], the “Predicted Hepatic Clearance (Pred. Cl.)” value in series [1] is below 1.83 mL/min/kg. For the same compound, the EC50 at GLP-1R is 30.6 nM.

As to `N#Cc1ccc(COc2cccc(-c3cc(F)c(Cc4nc5c(F)cc(C(=O)O)cc5n4C[C@@H]4CCO4)cc3F)n2)c(F)c1` [Example 896], in series [1], the “Predicted Hepatic Clearance (Pred. Cl.)” value is 4.5 mL/min/kg. Besides, the EC50 on GLP-1R came to 0.03 nM.

Turning to `CO[C@H]1C[C@H](Cn2c(Cc3cc(F)c(-c4cccc(OCc5ccc(C#N)cc5F)n4)cc3F)nc3ccc(C(=O)O)cc32)C1` [Example 745], the “Predicted Hepatic Clearance (Pred. Cl.)” value in series [1] is 1.83 mL/min/kg. Further, the 50% effective concentration (EC50) on GLP-1R was 83.5 nM.

In the case of `COCCn1c(Cc2ccc(-c3cccc(OCc4ccc(Cl)cn4)n3)cc2F)nc2ccc(C(=O)O)cc21` [Example 693], in series [1], the “Predicted Hepatic Clearance (Pred. Cl.)” value is 9.67 mL/min/kg. Moreover, the EC50 at GLP-1R is 15.9 nM.

As for `O=C(O)c1ccc2nc(Cc3ccc(-c4cccc(OCc5ccc(C(F)(F)F)cc5F)n4)cc3F)n(C[C@@H]3CCO3)c2c1` [Example 667], the “Predicted Hepatic Clearance (Pred. Cl.)” value in series [1] was 6 mL/min/kg. The concentration for a half-maximal effect (EC50) at GLP-1R was found to be 0.1 nM.

Take `COc1cc(Cl)ccc1COc1nccc(-c2ccc(Cc3nc4ccc(C(=O)O)nc4n3CC3(CF)CC3)cc2F)n1` [Example 233, 2-(4-(2-((4-chloro-2-methoxybenzyl)oxy)pyrimidin-4-yl)-3-fluorobenzyl)-3-((1-(fluoromethyl)cyclopropyl)methyl)-3H-imidazo[4,5-b]pyridine-5-carboxylic acid]: in series [1], the “Predicted Hepatic Clearance (Pred. Cl.)” value was 10.3 mL/min/kg. In addition, the EC50 at GLP-1R came out at 1.35 nM.

For `Cc1nc(Cn2c(Cc3cc(F)c(-c4cccc(OCc5ccc(C#N)cc5F)n4)cc3F)nc3ccc(C(=O)O)cc32)oc1C` [Example 615], the “Predicted Hepatic Clearance (Pred. Cl.)” value in series [1] is 2.33 mL/min/kg. Moreover, the EC50 on GLP-1R came out at 1420 nM.

With `N#Cc1ccc(COc2cccc(-c3ccc(Cc4nc5ccc(C(=O)O)cc5n4CC4(n5ccnn5)CC4)c(F)c3)n2)c(F)c1` [Example 284, 1-((1-(1H-1,2,3-triazol-1-yl)cyclopropyl)methyl)-2-(4-(6-((4-cyano-2-fluorobenzyl)oxy)pyridin-2-yl)-2-fluorobenzyl)-1H-benzo[d]imidazole-6-carboxylic acid], the “Predicted Hepatic Clearance (Pred. Cl.)” value in series [1] is below 1.83 mL/min/kg. Also, the EC50 at GLP-1R was found to be 2.87 nM.

In the case of `N#Cc1ccc(COc2cccc(-c3cc(F)c(Cc4nc5cc(F)c(C(=O)O)cc5n4CC4(CF)CC4)cc3F)n2)c(F)c1` [Example 205, 2-(4-(6-((4-cyano-2-fluorobenzyl)oxy)pyridin-2-yl)-2,5-difluorobenzyl)-5-fluoro-1-((1-(fluoromethyl)cyclopropyl)methyl)-1H-benzo[d]imidazole-6-carboxylic acid], the “Predicted Hepatic Clearance (Pred. Cl.)” value in series [1] was 5 mL/min/kg. The half-maximal effective concentration (EC50) at GLP-1R stood at 3.23 nM.

As for `COCCn1c(Cc2cc(F)c(-c3cccc(OCc4ccc(C#N)s4)n3)cc2F)nc2ccc(C(=O)O)cc21` [Example 805], the “Predicted Hepatic Clearance (Pred. Cl.)” value in series [1] is 12 mL/min/kg. In addition, on GLP-1R, the EC50 came to 7.12 nM.

On to `COCCn1c(Cc2ccc(-c3ccnc(OCc4ccc(C#N)cc4F)n3)c(F)c2)nc2c(F)cc(C(=O)O)cc21` [Example 558, 2-(4-(2-((4-cyano-2-fluorobenzyl)oxy)pyrimidin-4-yl)-3-fluorobenzyl)-4-fluoro-1-(2-methoxyethyl)-1H-benzo[d]imidazole-6-carboxylic acid], for which the “Predicted Hepatic Clearance (Pred. Cl.)” value in series [1] is 4 mL/min/kg. In addition, the EC50 at GLP-1R came to 22.4 nM.

`CO[C@H]1COC[C@@H]1n1c(Cc2cc(F)c(-c3cccc(OCc4ccc(C#N)cc4F)n3)cc2F)nc2ccc(C(=O)O)cc21` [Example 712]: in series [1], the “Predicted Hepatic Clearance (Pred. Cl.)” value was 6.83 mL/min/kg. Further, the EC50 on GLP-1R amounted to 2.55 nM.

Take `C[C@]1(Cn2c(Cc3ccc(-c4cccc(OCc5ccc(C#N)cc5F)n4)cc3F)nc3ccc(C(=O)O)cc32)CCO1` [Example 123, (R)-2-(4-(6-((4-cyano-2-fluorobenzyl)oxy)pyridin-2-yl)-2-fluorobenzyl)-1-((2-methyloxetan-2-yl)methyl)-1H-benzo[d]imidazole-6-carboxylic acid]: in series [1], the “Predicted Hepatic Clearance (Pred. Cl.)” value was 5.17 mL/min/kg. The EC50 on GLP-1R stood at 3.12 nM.

Take `COCCn1c(Cc2ccc(-c3cccc(OCc4ccc(C#N)cc4OCC(F)(F)F)n3)cc2F)nc2ccc(C(=O)O)cc21` [Example 236, 2-(4-(6-((4-cyano-2-(2,2,2-trifluoroethoxy)benzyl)oxy)pyridin-2-yl)-2-fluorobenzyl)-1-(2-methoxyethyl)-1H-benzo[d]imidazole-6-carboxylic acid]: in series [1], the “Predicted Hepatic Clearance (Pred. Cl.)” value was below 1.83 mL/min/kg. The EC50 at GLP-1R was 306 nM.

As to `COCCn1c(C2CCOc3cc(-c4cccc(OCc5ccc(C#N)cc5F)n4)ccc32)nc2ccc(C(=O)O)cc21` (stereo not shown) [Example 41, 2-(7-(6-((4-cyano-2-fluorobenzyl)oxy)pyridin-2-yl)chroman-4-yl)-1-(2-methoxyethyl)-1H-benzo[d]imidazole-carboxylic acid], the “Predicted Hepatic Clearance (Pred. Cl.)” value in series [1] was 6 mL/min/kg. Also, the EC50 on GLP-1R is 1460 nM.

For `COc1cc(C#N)ccc1COc1cccc(-c2cc(F)c(Cc3nc4ccc(C(N)=O)cc4n3CC3(CC#N)CC3)cc2F)n1` [Example 598, 2-(4-(6-((4-cyano-2-methoxybenzyl)oxy)pyridin-2-yl)-2,5-difluorobenzyl)-1-((1-(cyanomethyl)cyclopropyl)methyl)-1H-benzo[d]imidazole-6-carboxamide], the “Predicted Hepatic Clearance (Pred. Cl.)” value in series [1] is 19.2 mL/min/kg. The concentration giving a half-maximal response (EC50) on GLP-1R turned out to be 0.28 nM.

For the compound `COCCn1c(Cc2c(F)cc(-c3cncnc3OCc3ccc(C#N)cc3F)cc2F)nc2ccc(C(=O)O)cc21` [Example 189, 2-(4-(4-((4-cyano-2-fluorobenzyl)oxy)pyrimidin-5-yl)-2,6-difluorobenzyl)-1-(2-methoxyethyl)-1H-benzo[d]imidazole-carboxylic acid], in series [1], the “Predicted Hepatic Clearance (Pred. Cl.)” value was 8.5 mL/min/kg. In addition, the concentration giving a half-maximal response (EC50) on GLP-1R was found to be 3050 nM.

Regarding `N#Cc1ccc(COc2nccc(-c3cc(F)c(Cc4nc5ccc(C(=O)O)cc5n4C[C@@H]4CCO4)cc3F)n2)c(F)c1` [Example 415, (S)-2-(4-(2-((4-cyano-2-fluorobenzyl)oxy)pyrimidin-4-yl)-2,5-difluorobenzyl)-1-(oxetan-2-ylmethyl)-1H-benzo[d]imidazole-6-carboxylic acid], in series [1], the “Predicted Hepatic Clearance (Pred. Cl.)” value was 4.33 mL/min/kg. Besides, the EC50 on GLP-1R was found to be 0.15 nM.

As to `N#Cc1ccc(COc2cccc(-c3ccc(Cc4nc5ccc(C(=O)O)cc5n4CC4(CF)CC4)c(F)c3)n2)c(F)c1` [Example 10, 2-(4-(6-((4-cyano-2-fluorobenzyl)oxy)pyridin-2-yl)-2-fluorobenzyl)-1-((1-(fluoromethyl)cyclopropyl)methyl)-1H-benzo[d]imidazole-6-carboxylic acid], the “Predicted Hepatic Clearance (Pred. Cl.)” value in series [1] was 2.83 mL/min/kg. Moreover, the EC50 at GLP-1R is 0.57 nM.

`COCCOCCn1c(Cc2ccc(-c3cccc(OCc4ccc(C#N)cc4F)n3)cc2F)nc2ccc(C(=O)O)cc21` [Example 230, 2-(4-(6-((4-cyano-2-fluorobenzyl)oxy)pyridin-2-yl)-2-fluorobenzyl)-1-(2-(2-methoxyethoxy)ethyl)-1H-benzo[d]imidazole-6-carboxylic acid]: in series [1], the “Predicted Hepatic Clearance (Pred. Cl.)” value is 12 mL/min/kg. Further, the EC50 at GLP-1R is 27.4 nM.

In the case of `COCCn1c(Cc2cc(F)c(-c3cccc(OCc4ccc(-n5cccn5)nc4)n3)cc2F)nc2ccc(C(=O)O)cc21` [Example 865], the “Predicted Hepatic Clearance (Pred. Cl.)” value in series [1] was 4.33 mL/min/kg. On GLP-1R, the EC50 was determined as 29.8 nM.

Source of the values: US11702404B2, “GLP-1R modulating compounds” (priority 2019, dated 2023).
